Assay results taken from ChEMBL document CHEMBL1201862, “PubChem BioAssay data set” (2004).
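Grown in 96-well plates, cells were treated for 48 hours with each compound at five concentrations. Insufficient inhibition: endpoint recorded as highest concentration tested. At the GI50, growth is halved.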 Active and inactive are the calls of the source. Cut-off read from the data, not from the text of the source: active = GI50 up to about 1.1 µM and inactive = higher. Square brackets hold non-standard residues; d marks the D form. Peptide text beside a SMILES is read from it. pGlu = O=C1CC[C@@H](C(=O)O)N1; Thz = O=C(O)[C@@H]1CSCN1

What was measured:
Test in all cases: inhibition of tumour cell growth, NCI panel, 48 h
786-0 = test system: 786-0
A498 = test system: A498
CAKI-1 = test system: CAKI-1
DU-145 = test system: DU-145
HT-29 = test system: HT-29
M14 = test system: M14
MCF7 = test system: MCF7
MDA-MB-231 = test system: MDA-MB-231
NCI-H23 = test system: NCI-H23
NCI-H522 = test system: NCI-H522
OVCAR-8 = test system: OVCAR-8
RPMI-8226 = test system: RPMI-8226
SK-OV-3 = test system: SK-OV-3
SR = test system: SR
SW-620 = test system: SW-620
UACC-257 = test system: UACC-257
COLO 205 = test system: COLO 205
HOP-92 = test system: HOP-92
OVCAR-4 = test system: OVCAR-4
U-251 = test system: U-251

Measured: GI50

O=C1CC[C@@H](C(=O)N2CSC[C@H]2C(=O)O)N1 [PIDOTIMOD] ([pGlu]-[Thz]-OH)
inactive: 786-0 > 100 µM | A498 > 100 µM | CAKI-1 > 100 µM | DU-145 > 100 µM | HT-29 > 100 µM | M14 > 100 µM | MCF7 > 100 µM | MDA-MB-231 > 100 µM | NCI-H23 > 100 µM | NCI-H522 > 100 µM | OVCAR-8 > 100 µM | RPMI-8226 > 100 µM | SK-OV-3 > 100 µM | SR > 100 µM | SW-620 > 100 µM | UACC-257 > 100 µM

COC(=O)c1ccc(C)cc1C1CN=NC12Cc1cccc(C)c1C2=O (stereo not drawn)
inactive: 786-0 > 100 µM | CAKI-1 67.6 µM | COLO 205 30.5 µM | DU-145 65.2 µM | HOP-92 36.9 µM | HT-29 71.6 µM | M14 19.6 µM | MCF7 91.2 µM | MDA-MB-231 > 100 µM | NCI-H23 64.9 µM | NCI-H522 28.1 µM | OVCAR-4 26.5 µM | OVCAR-8 21.1 µM | RPMI-8226 20.8 µM | SK-OV-3 90.4 µM | SR 82.8 µM | SW-620 57.7 µM | U-251 79.1 µM | UACC-257 29.7 µM

CC1=C(C#N)C(=C(C#N)C#N)OC1(C)Cc1ccccc1 (stereo not drawn)
inactive: 786-0 41.7 µM | A498 87.7 µM | CAKI-1 24.7 µM | COLO 205 21 µM | DU-145 37 µM | HOP-92 19.7 µM | HT-29 32.7 µM | M14 30.8 µM | MCF7 38.2 µM | MDA-MB-231 47.9 µM | NCI-H23 36.7 µM | NCI-H522 14.4 µM | OVCAR-4 21.9 µM | OVCAR-8 65.5 µM | RPMI-8226 42.7 µM | SK-OV-3 > 100 µM | SW-620 42.9 µM | U-251 > 100 µM | UACC-257 49.4 µM

N#Cc1nc(-c2cc([N+](=O)[O-])cc([N+](=O)[O-])c2)oc1N
inactive: 786-0 > 10 µM | CAKI-1 > 10 µM | COLO 205 > 10 µM | DU-145 > 10 µM | HOP-92 > 10 µM | HT-29 > 10 µM | M14 > 10 µM | MCF7 > 10 µM | MDA-MB-231 > 10 µM | NCI-H23 > 10 µM | NCI-H522 > 10 µM | OVCAR-4 > 10 µM | OVCAR-8 > 10 µM | RPMI-8226 > 10 µM | SK-OV-3 > 10 µM | SR > 10 µM | SW-620 > 10 µM | UACC-257 > 10 µM

COc1ccc(-c2oc3cc(OC)c(OC)c(O)c3c(=O)c2OC)cc1
inactive: 786-0 21.9 µM | CAKI-1 10.5 µM | COLO 205 > 100 µM | DU-145 58.7 µM | HOP-92 14.5 µM | HT-29 > 100 µM | M14 > 100 µM | MCF7 41.6 µM | MDA-MB-231 17 µM | NCI-H522 33.7 µM | OVCAR-4 89.9 µM | OVCAR-8 43.2 µM | RPMI-8226 > 100 µM | SK-OV-3 22.7 µM | SR > 100 µM | SW-620 > 100 µM | U-251 34 µM | UACC-257 > 100 µM

O=C(c1ccccc1)c1ccc(N2C(=O)/C(=C/c3cccc(Oc4ccccc4)c3)N=C2c2ccccc2)c(N2C(=O)/C(=C/c3cccc(Oc4ccccc4)c3)N=C2c2ccccc2)c1
inactive: 786-0 31.5 µM | A498 33.1 µM | CAKI-1 41.5 µM | COLO 205 18 µM | DU-145 46.5 µM | HOP-92 88.5 µM | HT-29 30.9 µM | M14 35.7 µM | MCF7 24.9 µM | MDA-MB-231 45.8 µM | NCI-H23 29.6 µM | NCI-H522 11.4 µM | OVCAR-4 35.3 µM | OVCAR-8 32.1 µM | RPMI-8226 19.3 µM | SK-OV-3 42.9 µM | SW-620 30.7 µM | U-251 31.3 µM | UACC-257 17.7 µM

O=C(O)Cc1ccc(-n2nnc3c(=O)[nH][nH]c(=O)c32)cc1
inactive: 786-0 > 100 µM | CAKI-1 > 100 µM | COLO 205 > 100 µM | DU-145 > 100 µM | HOP-92 > 100 µM | HT-29 > 100 µM | M14 > 100 µM | MCF7 > 100 µM | MDA-MB-231 > 100 µM | NCI-H23 > 100 µM | OVCAR-4 > 100 µM | OVCAR-8 > 100 µM | RPMI-8226 > 100 µM | SR > 100 µM | U-251 > 100 µM | UACC-257 > 100 µM

Cc1c2c(c(C)n1-c1ccccc1)C(=O)N(CCSC(=N)N)C2=O
inactive: 786-0 > 100 µM | A498 32.4 µM | CAKI-1 50 µM | COLO 205 > 100 µM | DU-145 > 100 µM | HOP-92 > 100 µM | HT-29 > 100 µM | M14 > 100 µM | MCF7 32.1 µM | MDA-MB-231 > 100 µM | NCI-H23 4.85 µM | NCI-H522 35.7 µM | OVCAR-4 9.29 µM | OVCAR-8 62.2 µM | RPMI-8226 > 100 µM | SK-OV-3 > 100 µM | SW-620 > 100 µM | U-251 68.9 µM | UACC-257 28.8 µM

CCOc1cc(CCNC)c2c(ccc3ccc(OC)c(O)c32)c1OC
inactive: 786-0 17.5 µM | CAKI-1 17.5 µM | COLO 205 19 µM | DU-145 15.2 µM | HOP-92 12.1 µM | HT-29 14.8 µM | M14 13.9 µM | MCF7 8.47 µM | MDA-MB-231 13.4 µM | NCI-H23 11.7 µM | NCI-H522 5.14 µM | OVCAR-4 13.7 µM | OVCAR-8 13.6 µM | RPMI-8226 12.4 µM | SK-OV-3 14.4 µM | SR 4.44 µM | U-251 18.3 µM | UACC-257 13.1 µM

CCCCCC[C@H]([C@H](C)O)n1cnc2c(N)ncnc21
inactive: 786-0 > 100 µM | CAKI-1 > 100 µM | COLO 205 > 100 µM | DU-145 > 100 µM | HOP-92 > 100 µM | HT-29 > 100 µM | M14 > 100 µM | MCF7 > 100 µM | MDA-MB-231 > 100 µM | NCI-H23 > 100 µM | OVCAR-4 > 100 µM | OVCAR-8 > 100 µM | RPMI-8226 > 100 µM | SK-OV-3 > 100 µM | SR > 100 µM | SW-620 > 100 µM | U-251 > 100 µM | UACC-257 > 100 µM

CO[C@]1(c2ccc([N+](=O)[O-])cc2)Oc2ccccc2C(=O)[C@@]1(Nc1ccc(C=O)cc1)OC
inactive: 786-0 > 10 µM | A498 > 10 µM | CAKI-1 > 10 µM | COLO 205 > 10 µM | DU-145 > 10 µM | HT-29 > 10 µM | M14 > 10 µM | MCF7 > 10 µM | MDA-MB-231 > 10 µM | NCI-H23 > 10 µM | OVCAR-4 > 10 µM | OVCAR-8 > 10 µM | RPMI-8226 > 10 µM | SK-OV-3 > 10 µM | SR > 10 µM | SW-620 > 10 µM | U-251 > 10 µM | UACC-257 > 10 µM
